In the test the test system is Plasmodium berghei. Description: Luciferase/luciferin-expressing antifolate-resistant parasites were used to infect a culture of HepG2 cells that were pre-incubated with compounds. Infected hepatocytes emit light due to the luciferase reaction. Assay results are presented as the percent inhibition of light emission compared to control. […]. In kind it is functional. The following applies: sporozoite; for IC90: read-out: LUCIFERASE INFECTION ASSAY - IC90.

pIC50: −log10 of the molar value.

One may read the pIC50 as −log10 of the IC50, conventionally taken in molar units. In general, IC90 refers to the concentration at which the effect reaches the 90% level. With `COc1ccc(-c2cnc(N)c(-c3ccc(O)c(OC)c3)c2)cc1`, the IC90 was determined as 3.77 µM. Besides, the pIC50 (HEPG2TOX_HILL_SLOPE 8.61, HEPG2TOX_R_SQUARED 0.753, PBLUC_HILL_SLOPE 13.4, PBLUC_R_SQUARED 0.628, read-out: LUCIFERASE INFECTION ASSAY - IC50) is 5.49.

With `O=C1Nc2ccc([N+](=O)[O-])cc2/C1=N/NC(=S)NC1CCCCC1`, the 90% effect concentration (IC90) was found to be 3.82 µM. In addition, the pIC50 (HEPG2TOX_HILL_SLOPE 8.71, HEPG2TOX_R_SQUARED 0.815, PBLUC_HILL_SLOPE 16.7, PBLUC_R_SQUARED 0.29, read-out: LUCIFERASE INFECTION ASSAY - IC50) is 5.47.

On to `Cc1cc(C(=O)CN2C(=O)C(=O)N(Cc3ccccc3)C2=O)c(C)n1-c1ccc2c(c1)OCO2`, for which the IC90 was more than 10 µM. Moreover, the negative logarithm of the IC50 (pIC50) (HEPG2TOX_HILL_SLOPE 8.65, HEPG2TOX_R_SQUARED 0.666, PBLUC_HILL_SLOPE 3.13, PBLUC_R_SQUARED 0.534, read-out: LUCIFERASE INFECTION ASSAY - IC50) was 5.22.

On to `COc1ccc(C2C3CCc4ccccc4C3=NN2CCO)cc1` (stereo not drawn), for which the IC90 was more than 10.2 µM. In addition, the pIC50 (HEPG2TOX_HILL_SLOPE 8.7, HEPG2TOX_R_SQUARED 0.737, PBLUC_HILL_SLOPE 7.39, PBLUC_R_SQUARED 0.683, read-out: LUCIFERASE INFECTION ASSAY - IC50) was less than 4.99.

Take `Cc1cc(C(=O)CNC(=O)Nc2ccccc2)c(C)n1-c1ccc(F)c(Cl)c1`: the IC90 stood at 9.57 µM. Further, for the setting “HEPG2TOX_HILL_SLOPE 8.63, HEPG2TOX_R_SQUARED 0.403, PBLUC_HILL_SLOPE 1.87, PBLUC_R_SQUARED 0.488, read-out: LUCIFERASE INFECTION ASSAY - IC50”, the pIC50 was 5.53.

Turning to `CC(=O)c1cccc(NC(=O)Nc2ccc3nc(-c4cccc(C(F)(F)F)c4)nn3c2)c1`, the IC90 is 9.17 µM. The pIC50 (HEPG2TOX_HILL_SLOPE 8.68, HEPG2TOX_R_SQUARED 0.208, PBLUC_HILL_SLOPE 3.77, PBLUC_R_SQUARED 0.543, read-out: LUCIFERASE INFECTION ASSAY - IC50) is 5.29.

In the case of `COc1cc(OC)cc(C(=O)Nc2nc3ccc(C)cn3c2C(=O)NC2CCCC2)c1`, the IC90 amounted to 6.19 µM. Moreover, the pIC50 (HEPG2TOX_HILL_SLOPE 8.61, HEPG2TOX_R_SQUARED 0.625, PBLUC_HILL_SLOPE 3.28, PBLUC_R_SQUARED 0.589, read-out: LUCIFERASE INFECTION ASSAY - IC50) is 5.50.

Consider `Cc1cc(N2CCN(Cc3nc(=O)c4cc(Cl)ccc4[nH]3)CC2)nc(C(C)C)n1`, for which the concentration for an effect of 90% (IC90) is more than 10 µM. Where the note is “HEPG2TOX_HILL_SLOPE 8.69, HEPG2TOX_R_SQUARED 0.562, PBLUC_HILL_SLOPE 3.21, PBLUC_R_SQUARED 0.576, read-out: LUCIFERASE INFECTION ASSAY - IC50”, the pIC50 was 5.24.

With `Cc1ccc2nc(NC(=O)c3cc(F)ccc3F)c(C(=O)NCC(C)C)n2c1`, the IC90 was 3.13 µM. For the setting “HEPG2TOX_HILL_SLOPE 8.58, HEPG2TOX_R_SQUARED 0.935, PBLUC_HILL_SLOPE 15.1, PBLUC_R_SQUARED 0.738, read-out: LUCIFERASE INFECTION ASSAY - IC50”, the pIC50 is 5.57.

In the case of `CN(C)S(=O)(=O)c1ccc(N2CCCC2)c(C(=O)Nc2nc(-c3ccccn3)cs2)c1`, the 90% effect concentration (IC90) was found to be 9.7 µM. For the setting “HEPG2TOX_HILL_SLOPE 8.6, HEPG2TOX_R_SQUARED 0.463, PBLUC_HILL_SLOPE 5.89, PBLUC_R_SQUARED 0.378, read-out: LUCIFERASE INFECTION ASSAY - IC50”, the pIC50 is 5.18.

Regarding `Clc1ccc(CSC2=NNC(c3ccccn3)S2)cc1` (stereo not drawn), the IC90 turned out to be 9.43 µM. Also, the pIC50 (HEPG2TOX_HILL_SLOPE 8.57, HEPG2TOX_R_SQUARED 0.799, PBLUC_HILL_SLOPE 12, PBLUC_R_SQUARED 0.743, read-out: LUCIFERASE INFECTION ASSAY - IC50) is 5.10.

`CCOc1ccc(NC(=S)N/N=C/c2cc(Cl)cc([N+](=O)[O-])c2O)cc1`: the IC90 is more than 10 µM. Moreover, for the setting “HEPG2TOX_HILL_SLOPE 8.71, HEPG2TOX_R_SQUARED 0.133, PBLUC_HILL_SLOPE 2.29, PBLUC_R_SQUARED 0.38, read-out: LUCIFERASE INFECTION ASSAY - IC50”, the pIC50 is 5.17.

For the compound `CC(C)(C)NC(=S)N/N=C/c1cc(I)cc(I)c1O`, the IC90 came out at 4.23 µM. Besides, the pIC50 (HEPG2TOX_HILL_SLOPE 8.65, HEPG2TOX_R_SQUARED 0.588, PBLUC_HILL_SLOPE 9.82, PBLUC_R_SQUARED 0.5, read-out: LUCIFERASE INFECTION ASSAY - IC50) was 5.47.

Turning to `Cc1cc(C(=O)COC(=O)c2ccccc2S(=O)(=O)N(C)c2ccccc2)c(C)n1C1CC1`, the IC90 is more than 10 µM. For the same compound, the pIC50 (HEPG2TOX_HILL_SLOPE 8.61, HEPG2TOX_R_SQUARED 0.607, read-out: LUCIFERASE INFECTION ASSAY - IC50) was less than 5.00.

Turning to `COc1ccccc1-c1cnn2ccc(Nc3ccccc3)nc12`, the IC90 was 2.14 µM. Moreover, the pIC50 (HEPG2TOX_HILL_SLOPE 8.7, HEPG2TOX_R_SQUARED 0.948, PBLUC_HILL_SLOPE 3.38, PBLUC_R_SQUARED 0.62, read-out: LUCIFERASE INFECTION ASSAY - IC50) was 5.95.

`Cc1ccc2nc(NC(=O)c3ccc(F)cc3)c(C(=O)NC3CCCCC3)n2c1`: the 90% effect concentration (IC90) stood at 4.51 µM. Besides, the pIC50 (HEPG2TOX_HILL_SLOPE 8.64, HEPG2TOX_R_SQUARED 0.539, PBLUC_HILL_SLOPE 8.68, PBLUC_R_SQUARED 0.013, read-out: LUCIFERASE INFECTION ASSAY - IC50) was 5.46.

Consider `COc1ccc(Cn2nc(-c3ccccc3)cc2-c2ccccc2O)cc1`, for which the IC90 was determined as 1.33 µM. In addition, the negative logarithm of the IC50 (pIC50) (HEPG2TOX_HILL_SLOPE 8.58, HEPG2TOX_R_SQUARED 0.567, PBLUC_HILL_SLOPE 13.6, PBLUC_R_SQUARED 0.554, read-out: LUCIFERASE INFECTION ASSAY - IC50) is 5.95.

Consider `COc1ccccc1-c1nc2c3c(C)c(C)n(-c4ccccc4OC)c3ncn2n1`, for which the IC90 is 7.51 µM. Also, for the setting “HEPG2TOX_HILL_SLOPE 8.61, HEPG2TOX_R_SQUARED 0.202, PBLUC_HILL_SLOPE 3.56, PBLUC_R_SQUARED 0.654, read-out: LUCIFERASE INFECTION ASSAY - IC50”, the pIC50 was 5.39.

Consider `COc1c(Br)cc([N+](=O)[O-])c(OC)c1C(=O)NC(=O)Nc1cc(C(F)(F)F)cc(C(F)(F)F)c1`, for which the IC90 came out at 5.15 µM. Where the note is “HEPG2TOX_HILL_SLOPE 8.68, HEPG2TOX_R_SQUARED 0.501, PBLUC_HILL_SLOPE 19.7, PBLUC_R_SQUARED 0.399, read-out: LUCIFERASE INFECTION ASSAY - IC50”, the pIC50 was 5.34.

Consider `OC(c1cc(C(F)(F)F)cc(C(F)(F)F)c1)c1cc(C(F)(F)F)cc(C(F)(F)F)c1`, for which the concentration for an effect of 90% (IC90) was more than 7.23 µM. For the same compound, the negative logarithm of the IC50 (pIC50) (HEPG2TOX_HILL_SLOPE 8.63, HEPG2TOX_R_SQUARED 0.166, read-out: LUCIFERASE INFECTION ASSAY - IC50) was less than 5.14.

On to `CN(Cc1ccc(Cl)s1)C(=O)Cn1ncc(Br)c(Br)c1=O`, for which the IC90 amounted to 8.7 µM. For the same compound, the pIC50 (HEPG2TOX_HILL_SLOPE 8.71, HEPG2TOX_R_SQUARED 0.0596, PBLUC_HILL_SLOPE 2.5, PBLUC_R_SQUARED 0.642, read-out: LUCIFERASE INFECTION ASSAY - IC50) is 5.44.

Take `CCc1cc(=O)n2nc(Cc3ccccc3)c(-c3ccccc3)c2[nH]1`: the 90% effect concentration (IC90) is more than 10 µM. In addition, the pIC50 (HEPG2TOX_HILL_SLOPE 8.68, HEPG2TOX_R_SQUARED 0.27, PBLUC_HILL_SLOPE 11.4, PBLUC_R_SQUARED 0.149, read-out: LUCIFERASE INFECTION ASSAY - IC50) was 5.06.

As to `C=CCn1c(COc2ccc(C(C)(C)C)cc2)nnc1SCC(=O)N(C)C1CCCCC1`, the IC90 was more than 10 µM. Moreover, where the note is “HEPG2TOX_HILL_SLOPE 8.72, HEPG2TOX_R_SQUARED 0.783, PBLUC_HILL_SLOPE 29.5, PBLUC_R_SQUARED 0.113, read-out: LUCIFERASE INFECTION ASSAY - IC50”, the pIC50 is 5.02.

Consider `CC(C)(C)c1ccc(-c2csc(NC(=O)c3cnccn3)n2)cc1`, for which the 90% effect concentration (IC90) was more than 10 µM. Further, the pIC50 (HEPG2TOX_HILL_SLOPE 8.57, HEPG2TOX_R_SQUARED 0.595, PBLUC_HILL_SLOPE 12.7, PBLUC_R_SQUARED 0.201, read-out: LUCIFERASE INFECTION ASSAY - IC50) is 5.04.

In the case of `OC(CN1CC=C(c2c[nH]c3ccccc23)CC1)c1ccccc1` (stereo not drawn), the concentration for an effect of 90% (IC90) is more than 10 µM. Also, the pIC50 (HEPG2TOX_HILL_SLOPE 8.59, HEPG2TOX_R_SQUARED 0.892, PBLUC_HILL_SLOPE 2.5, PBLUC_R_SQUARED 0.397, read-out: LUCIFERASE INFECTION ASSAY - IC50) was 5.28.

Regarding `CS(=O)(=O)Nc1cccc(CNC(=O)c2cccc3c4c([nH]c23)CCCC4)c1`, the IC90 is more than 10 µM. The pIC50 (HEPG2TOX_HILL_SLOPE 8.62, HEPG2TOX_R_SQUARED 0.723, PBLUC_HILL_SLOPE 1.82, PBLUC_R_SQUARED 0.711, read-out: LUCIFERASE INFECTION ASSAY - IC50) was 5.27.

On to `CC(O)c1ccc(-c2ccccc2NC(=O)c2ccccn2)s1` (stereo not drawn), for which the concentration for an effect of 90% (IC90) was more than 10 µM. Moreover, the negative logarithm of the IC50 (pIC50) (HEPG2TOX_HILL_SLOPE 8.65, HEPG2TOX_R_SQUARED 0.867, read-out: LUCIFERASE INFECTION ASSAY - IC50) is less than 5.00.

Take `N#Cc1ccc(-c2cnc3ccc(NCc4ccc(S(N)(=O)=O)cc4)nn23)cc1`: the IC90 worked out at 3.66 µM. Further, the pIC50 (HEPG2TOX_HILL_SLOPE 8.58, HEPG2TOX_R_SQUARED 0.551, PBLUC_HILL_SLOPE 11.6, PBLUC_R_SQUARED 0.236, read-out: LUCIFERASE INFECTION ASSAY - IC50) is 5.52.

Regarding `CC(C)c1ccc(N2C(=O)C=CC2=O)cc1`, the IC90 was more than 15.3 µM. Besides, the pIC50 (HEPG2TOX_HILL_SLOPE 8.61, HEPG2TOX_R_SQUARED 0.25, PBLUC_HILL_SLOPE 3.82, PBLUC_R_SQUARED 0.327, read-out: LUCIFERASE INFECTION ASSAY - IC50) was 5.01.

Values taken from ChEMBL document CHEMBL4483862, “Open-source discovery of chemical leads for next-generation chemoprotective antimalarials” (2018).
